Drawing on ChEMBL document CHEMBL3085634, “Identification of elaiophylin derivatives from the marine-derived actinomycete Streptomyces sp. 7-145 using PCR-based screening” (2013), this text covers MIC for three compounds.

Holding throughout (format): functional
Test [1] has as its system Escherichia coli. In words: Antibacterial activity against extended spectrum beta-lactamase producing Escherichia coli 09-1 assessed as growth inhibition after 18 hrs by agar dilution method. The settings on record: 09-1, 18 h. A general note: In agar dilution the substance is mixed into plates at graded concentrations.
The subject of test [2] is Staphylococcus aureus. In words: Antibacterial activity against thiostrepton-resistant Staphylococcus aureus ATCC 6538P assessed as growth inhibition after 18 hrs by agar dilution method.
The test system of test [3] is Staphylococcus aureus. The test is described as follows: Antibacterial activity against methicillin-resistant Staphylococcus aureus 09-13 assessed as growth inhibition after 18 hrs by agar dilution method. The settings on record: 09-13, 18 h.
In test [4] the test system is Staphylococcus aureus. In words: Antibacterial activity against methicillin-resistant Staphylococcus aureus R6101 assessed as growth inhibition after 18 hrs by agar dilution method. The settings on record: R6101, 18 h.
For the next test, the system named is Morganella morganii. The test is described as follows: Antibacterial activity against beta-lactamase producing Morganella morganii ATCC 25830 assessed as growth inhibition after 18 hrs by agar dilution method. The settings on record: ATCC 25830, 18 h.
The subject of test [5] is Enterococcus faecalis. In words: Antibacterial activity against vancomycin-resistant Enterococcus faecalis ATCC 51299 assessed as growth inhibition after 18 hrs by agar dilution method. The settings on record: ATCC 51299, 18 h.
Test [6] relates to Enterococcus faecalis. In words: Antibacterial activity against vancomycin-sensitive Enterococcus faecalis ATCC 29212 assessed as growth inhibition after 18 hrs by agar dilution method. The settings on record: ATCC 29212, 18 h.
The subject of test [7] is Staphylococcus aureus. In words: Antibacterial activity against methicillin-sensitive Staphylococcus aureus 09-6 assessed as growth inhibition after 18 hrs by agar dilution method. The settings on record: 09-6, 18 h.
In test [8] the test system is Enterococcus faecalis. The test is described as follows: Antibacterial activity against vancomycin-resistant Enterococcus faecalis W4138 assessed as growth inhibition after 18 hrs by agar dilution method. The settings on record: W4138, 18 h.
Test [9] concerns Klebsiella pneumoniae. The test is described as follows: Antibacterial activity against New Delhi metallo-beta-lactamase 1 producing Klebsiella pneumoniae ATCC BAA-2146 assessed as growth inhibition after 18 hrs by agar dilution method. The settings on record: ATCC BAA-2146, 18 h.
In a further test the test system is Micrococcus luteus. In words: Antibacterial activity against apramycin-resistant Micrococcus luteus ATCC 10240 assessed as growth inhibition after 18 hrs by agar dilution method. The settings on record: ATCC 10240, 18 h.
Test [10] relates to Enterococcus faecium. In words: Antibacterial activity against vancomycin-resistant Enterococcus faecium ATCC 700221 assessed as growth inhibition after 18 hrs by agar dilution method. The settings on record: ATCC 700221, 18 h.
Test [11] deals with Enterococcus faecalis. The test is described as follows: Antibacterial activity against vancomycin-resistant Enterococcus faecalis R6512 assessed as growth inhibition after 18 hrs by agar dilution method. The settings on record: R6512, 18 h.
Test [12] concerns Enterococcus faecalis. The test is described as follows: Antibacterial activity against vancomycin-sensitive Enterococcus faecalis 09-8 assessed as growth inhibition after 18 hrs by agar dilution method. The settings on record: 09-8, 18 h.
For test [13], the system named is Klebsiella pneumoniae. The test is described as follows: Antibacterial activity against extended spectrum beta-lactamase producing Klebsiella pneumoniae ATCC 700603 assessed as growth inhibition after 18 hrs by agar dilution method. The settings on record: ATCC 700603, 18 h.
Test [14] concerns Staphylococcus epidermidis. In words: Antibacterial activity against methicillin-resistant Staphylococcus epidermidis 09-3 assessed as growth inhibition after 18 hrs by agar dilution method. The settings on record: 09-3, 18 h.
A further test relates to Pseudomonas aeruginosa. In words: Antibacterial activity against beta-lactamase producing Pseudomonas aeruginosa ATCC 27853 assessed as growth inhibition after 18 hrs by agar dilution method. The settings on record: ATCC 27853, 18 h.
Test [15] relates to Staphylococcus epidermidis. In words: Antibacterial activity against methicillin-sensitive Staphylococcus epidermidis ATCC 12228 assessed as growth inhibition after 18 hrs by agar dilution method. The settings on record: ATCC 12228, 18 h.
The test system of test [16] is Escherichia coli. The test is described as follows: Antibacterial activity against beta-lactamase producing Escherichia coli 09-20 assessed as growth inhibition after 18 hrs by agar dilution method. The settings on record: 09-20, 18 h.
The subject of test [17] is Staphylococcus aureus. The test is described as follows: Antibacterial activity against methicillin-resistant Staphylococcus aureus ATCC 33591 assessed as growth inhibition after 18 hrs by agar dilution method. The settings on record: ATCC 33591, 18 h.
Test [18] deals with Staphylococcus aureus. In words: Antibacterial activity against methicillin-sensitive Staphylococcus aureus ATCC 29213 assessed as growth inhibition after 18 hrs by agar dilution method. The settings on record: ATCC 29213, 18 h.
Test [19] concerns Enterococcus faecium. The test is described as follows: Antibacterial activity against vancomycin-sensitive Enterococcus faecium 09-10 assessed as growth inhibition after 18 hrs by agar dilution method. The settings on record: 09-10, 18 h.

In brackets after ≈: the same amount, converted by molar mass.

What is called MIC is the lowest concentration that inhibits growth of the organism. On to `CC[C@@H]1[C@@H](C)OC([C@@H](C)[C@H](O)[C@H](C)[C@H]2OC(=O)/C=C/C=C/[C@H](C)[C@@H]([C@@H](C)[C@@H](O)[C@H](C)[C@@]3(O)C[C@@H](O[C@H]4C[C@H](O)[C@H](O)[C@H](C)O4)[C@H](CC)[C@@H](C)O3)OC(=O)/C=C/C=C/[C@@H]2C)=C[C@H]1O[C@H]1C[C@H](O)[C@H](O)[C@H](C)O1`, for which the MIC in the test with Escherichia coli [1] was over 64 µg/mL; in the test on Staphylococcus aureus [2], 4 µg/mL (≈ 3.97 µM); in the test on Staphylococcus aureus [3], 2 µg/mL (≈ 1.99 µM); in the test with Staphylococcus aureus [4], over 64 µg/mL; in the test on Morganella morganii it was over 64 µg/mL; with Enterococcus faecalis [5] it was 2 µg/mL (≈ 1.99 µM). In addition, the MIC with Enterococcus faecalis [6] is 2 µg/mL (≈ 1.99 µM); in the test with Staphylococcus aureus [7], 2 µg/mL (≈ 1.99 µM); with Enterococcus faecalis [8], 4 µg/mL (≈ 3.97 µM); in the test with Klebsiella pneumoniae [9] it was over 64 µg/mL; with Micrococcus luteus it was 2 µg/mL (≈ 1.99 µM); with Enterococcus faecium [10] it was 4 µg/mL (≈ 3.97 µM). Also, the MIC is 4 µg/mL (≈ 3.97 µM) in the test with Enterococcus faecalis [11]; 2 µg/mL (≈ 1.99 µM) in the test with Enterococcus faecalis [12]; over 64 µg/mL in the test on Klebsiella pneumoniae [13]; over 64 µg/mL in test [14]; over 64 µg/mL in the test on Pseudomonas aeruginosa; over 64 µg/mL in [15]. In addition, the MIC in the test on Escherichia coli [16] is over 64 µg/mL; in the test on Staphylococcus aureus [17], 2 µg/mL (≈ 1.99 µM); in the test on Staphylococcus aureus [18] it was 2 µg/mL (≈ 1.99 µM); in the test on Enterococcus faecium [19], over 64 µg/mL.

On to `CC[C@@H]1[C@@H](C)O[C@@](OC)([C@@H](C)[C@H](O)[C@H](C)[C@H]2OC(=O)/C=C/C=C/[C@H](C)[C@@H]([C@@H](C)[C@@H](O)[C@H](C)[C@@]3(OC)C[C@@H](O[C@H]4C[C@H](O)[C@H](O)[C@H](C)O4)[C@H](C)[C@@H](C)O3)OC(=O)/C=C/C=C/[C@@H]2C)C[C@H]1O[C@H]1C[C@H](O)[C@H](O)[C@H](C)O1`, for which the MIC in the test on Escherichia coli [1] was over 128 µg/mL; in the test on Staphylococcus aureus [2] it was over 128 µg/mL; in the test with Staphylococcus aureus [3], 32 µg/mL (≈ 30.8 µM); in the test with Staphylococcus aureus [4], 16 µg/mL (≈ 15.4 µM); in the test on Morganella morganii, over 128 µg/mL; with Enterococcus faecalis [5] it was 64 µg/mL (≈ 61.6 µM). The MIC in the test with Enterococcus faecalis [6] was 64 µg/mL (≈ 61.6 µM); with Staphylococcus aureus [7], 32 µg/mL (≈ 30.8 µM); in the test with Enterococcus faecalis [8], 64 µg/mL (≈ 61.6 µM); in the test with Klebsiella pneumoniae [9], over 128 µg/mL; with Micrococcus luteus, 128 µg/mL (≈ 123 µM); with Enterococcus faecium [10], 64 µg/mL (≈ 61.6 µM). For the same compound, the MIC in the test with Enterococcus faecalis [11] was over 128 µg/mL; with Enterococcus faecalis [12], 64 µg/mL (≈ 61.6 µM); in the test with Klebsiella pneumoniae [13], over 128 µg/mL; in test [14], 64 µg/mL (≈ 61.6 µM); with Pseudomonas aeruginosa it was over 128 µg/mL; in test [15], 64 µg/mL (≈ 61.6 µM). For the same compound, the MIC in the test with Escherichia coli [16] is over 128 µg/mL; with Staphylococcus aureus [17] it was 32 µg/mL (≈ 30.8 µM); in the test on Staphylococcus aureus [18] it was 32 µg/mL (≈ 30.8 µM); in the test with Enterococcus faecium [19], 64 µg/mL (≈ 61.6 µM).

`CC[C@@H]1[C@@H](C)O[C@@](O)([C@@H](C)[C@H](O)[C@H](C)[C@H]2OC(=O)/C=C/C=C/[C@H](C)[C@@H]([C@@H](C)[C@@H](O)[C@H](C)[C@@]3(O)C[C@@H](O[C@H]4C[C@H](O)[C@H](O)[C@H](C)O4)[C@H](C)[C@@H](C)O3)OC(=O)/C=C/C=C/[C@@H]2C)C[C@H]1O[C@H]1C[C@H](O)[C@H](O)[C@H](C)O1`: the MIC is over 64 µg/mL with Escherichia coli [1]; 2 µg/mL (≈ 1.98 µM) in the test with Staphylococcus aureus [2]; 2 µg/mL (≈ 1.98 µM) in the test on Staphylococcus aureus [3]; 2 µg/mL (≈ 1.98 µM) with Staphylococcus aureus [4]; over 64 µg/mL in the test with Morganella morganii; 2 µg/mL (≈ 1.98 µM) in the test on Enterococcus faecalis [5]. In addition, the MIC was 2 µg/mL (≈ 1.98 µM) in the test on Enterococcus faecalis [6]; 2 µg/mL (≈ 1.98 µM) in the test on Staphylococcus aureus [7]; 4 µg/mL (≈ 3.96 µM) in the test with Enterococcus faecalis [8]; over 64 µg/mL with Klebsiella pneumoniae [9]; 2 µg/mL (≈ 1.98 µM) with Micrococcus luteus; 2 µg/mL (≈ 1.98 µM) in the test on Enterococcus faecium [10]. Moreover, the MIC was 2 µg/mL (≈ 1.98 µM) in the test with Enterococcus faecalis [11]; 16 µg/mL (≈ 15.8 µM) in the test with Enterococcus faecalis [12]; over 64 µg/mL with Klebsiella pneumoniae [13]; 4 µg/mL (≈ 3.96 µM) in test [14]; over 64 µg/mL in the test with Pseudomonas aeruginosa; 4 µg/mL (≈ 3.96 µM) in [15]. Besides, the MIC in the test with Escherichia coli [16] is over 64 µg/mL; in the test with Staphylococcus aureus [17] it was 2 µg/mL (≈ 1.98 µM); in the test with Staphylococcus aureus [18], 2 µg/mL (≈ 1.98 µM); in the test on Enterococcus faecium [19], over 64 µg/mL.
